# PubChem BioAssay AID192 (DTP/NCI, 2004)
# “And” between values parts separate entries of the source, which are not always exact repeats. Identical values can stand only once. Inconclusive results and toxic doses are left out.
# Test system: BDF1 mice, B16 melanoma ip, median survival T/C
# Assay: NCI In Vivo Anticancer Drug Screen. Data for tumor model B16 Melanoma (intraperitoneal) in B6D2F1 (BDF1) mice
# Details: endpoint: median survival time, higher = longer survival
# Outline: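 Mice with transplantable tumors; drug vs vehicle groups; endpoint survival or tumor size; value = T/C.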
# [1] = dose: 50.0 mg/kg/injection, schedule: Q01DX009 (ip), vehicle: saline
# [2] = dose: 100.0 mg/kg/injection, schedule: Q01DX009 (ip), vehicle: saline
# [3] = dose: 200.0 mg/kg/injection, schedule: Q01DX009 (ip), vehicle: saline
# [4] = dose: 0.75 mg/kg/injection, schedule: Q01DX009 (ip), vehicle: saline
# [5] = dose: 3.0 mg/kg/injection, schedule: Q01DX009 (ip), vehicle: saline
# [6] = dose: 3.12 mg/kg/injection, schedule: Q01DX009 (ip), vehicle: Klucel (hydroxypropylcellulose) (HPC)
# [7] = dose: 6.25 mg/kg/injection, schedule: Q01DX009 (ip), vehicle: Klucel (hydroxypropylcellulose) (HPC)
# [8] = dose: 12.5 mg/kg/injection, schedule: Q01DX009 (ip), vehicle: Klucel (hydroxypropylcellulose) (HPC)
# [9] = dose: 25.0 mg/kg/injection, schedule: Q01DX009 (ip), vehicle: Klucel (hydroxypropylcellulose) (HPC)
# [10] = dose: 50.0 mg/kg/injection, schedule: Q01DX009 (ip), vehicle: Klucel (hydroxypropylcellulose) (HPC)
# [11] = dose: 100.0 mg/kg/injection, schedule: Q01DX009 (ip), vehicle: Klucel (hydroxypropylcellulose) (HPC)
# [12] = dose: 4.0 mg/kg/injection, schedule: Q01DX009 (ip), vehicle: saline
structure (smiles),measurement,setting,value
CCCC1(CCC)c2ccccc2C(CCl)(OCC)c2ccccc21,T/C,"dose: 12.5 mg/kg/injection, schedule: Q01DX009 (ip), vehicle: other",92 % of control
same,T/C,"dose: 25.0 mg/kg/injection, schedule: Q01DX009 (ip), vehicle: other",102 % of control
same,T/C,"dose: 50.0 mg/kg/injection, schedule: Q01DX009 (ip), vehicle: other",100 % of control
same,T/C,"dose: 75.0 mg/kg/injection, schedule: Q01DX009 (ip), vehicle: other",86 % of control
same,T/C,"dose: 300.0 mg/kg/injection, schedule: Q01DX009 (ip), vehicle: other",86 % of control
OC(C1CO1)(C(F)(F)F)C(F)(F)F (centres undefined),T/C,[1],92 % of control
same,T/C,[2],90 % of control
same,T/C,[3],92 % of control
O=C1C(=O)C(Cl)=C(Cl)C(Cl)=C1Cl,T/C,[4],106 % of control
same,T/C,"dose: 1.5 mg/kg/injection, schedule: Q01DX009 (ip), vehicle: saline",93 % of control
same,T/C,[5],93 % of control
[I][Ga]([I])[I],T/C,"dose: 12.5 mg/kg/injection, schedule: Q01DX009 (ip), vehicle: saline",87 % of control
same,T/C,"dose: 25.0 mg/kg/injection, schedule: Q01DX009 (ip), vehicle: saline",102 % of control
O=C(Nc1ccc(Cl)c(Cl)c1)Nc1c(Oc2ccc(Cl)c(Cl)c2)ccc(Cl)c1S(=O)(=O)O,T/C,[6],119 % of control
same,T/C,[7],105 % of control
same,T/C,"dose: 6.25 mg/kg/injection, schedule: Q01DX009 (ip), vehicle: saline with Tween-80",122 % of control
same,T/C,[8],105 % of control
same,T/C,[9],116 % of control
same,T/C,"dose: 25.0 mg/kg/injection, schedule: Q01DX009 (ip), vehicle: saline with Tween-80",122 % of control
same,T/C,[10],112 % of control
same,T/C,[11],123 % of control
CC(C)C[CH2][Pb]([Cl])([CH2]CC(C)C)[CH2]CC(C)C,T/C,"dose: 0.06 mg/kg/injection, schedule: Q01DX009 (ip), vehicle: saline",95 % of control
same,T/C,"dose: 0.12 mg/kg/injection, schedule: Q01DX009 (ip), vehicle: Klucel (hydroxypropylcellulose) (HPC)",100 % of control
same,T/C,"dose: 0.12 mg/kg/injection, schedule: Q01DX009 (ip), vehicle: saline",104 % of control
same,T/C,"dose: 0.25 mg/kg/injection, schedule: Q01DX009 (ip), vehicle: saline",96 % of control
same,T/C,"dose: 0.5 mg/kg/injection, schedule: Q01DX009 (ip), vehicle: Klucel (hydroxypropylcellulose) (HPC)",93 % of control
same,T/C,"dose: 0.5 mg/kg/injection, schedule: Q01DX009 (ip), vehicle: saline",100 % of control
same,T/C,"dose: 1.0 mg/kg/injection, schedule: Q01DX009 (ip), vehicle: Klucel (hydroxypropylcellulose) (HPC)",89 % of control
same,T/C,"dose: 1.0 mg/kg/injection, schedule: Q01DX009 (ip), vehicle: saline",104 % of control
same,T/C,"dose: 2.0 mg/kg/injection, schedule: Q01DX009 (ip), vehicle: saline",101 % of control
same,T/C,[12],98 % of control
same,T/C,"dose: 8.0 mg/kg/injection, schedule: Q01DX009 (ip), vehicle: saline",94 % of control
N#CSc1ccc(S(N)(=O)=O)cc1,T/C,[7],100 % of control
same,T/C,[8],103 % of control
O=C(O)C(Cl)Cc1cnc[nH]1 (centres undefined),T/C,[1],111 % of control
same,T/C,[2],111 % of control
same,T/C,[3],112 % of control
CCCCCCCCCCCC(=O)[O][Sn]([CH2]c1ccccc1)([CH2]c1ccccc1)[CH2]c1ccccc1,T/C,"dose: 1.25 mg/kg/injection, schedule: Q04DX003 (ip), vehicle: other",107 % of control
same,T/C,"dose: 2.5 mg/kg/injection, schedule: Q04DX003 (ip), vehicle: other",105 % of control
same,T/C,"dose: 5.0 mg/kg/injection, schedule: Q04DX003 (ip), vehicle: other",95 % of control
[CH3][Hg][O]C(C)=O,T/C,[6],94 % of control
same,T/C,[7],86 % of control
CS(=O)(=O)OCCN1CCC2(CC1)SSC1(CCN(CCOS(C)(=O)=O)CC1)S2,T/C,"dose: 3.13 mg/kg/injection, schedule: Q01DX009 (ip), vehicle: saline",106 % of control
same,T/C,"dose: 6.25 mg/kg/injection, schedule: Q01DX009 (ip), vehicle: saline",106 % of control
CC(=O)Oc1ccc[nH]c1=O,T/C,"dose: 75.0 mg/kg/injection, schedule: Q01DX009 (ip), vehicle: saline",91 % of control and 94 % of control
same,T/C,"dose: 150.0 mg/kg/injection, schedule: Q01DX009 (ip), vehicle: saline",91 % of control
same,T/C,"dose: 200.0 mg/kg/injection, schedule: Q01DX009 (ip), vehicle: saline with Tween-80",105 % of control
same,T/C,[3],90 % of control and 95 % of control
same,T/C,"dose: 300.0 mg/kg/injection, schedule: Q01DX009 (ip), vehicle: saline",104 % of control and 105 % of control
same,T/C,"dose: 400.0 mg/kg/injection, schedule: Q01DX009 (ip), vehicle: saline with Tween-80",105 % of control
same,T/C,"dose: 600.0 mg/kg/injection, schedule: Q01DX009 (ip), vehicle: saline with Tween-80",106 % of control
COc1cc(C)c(C2NC(=O)c3ccccc3N2)cc1C (centres undefined),T/C,[9],103 % of control
same,T/C,[10],113 % of control
same,T/C,[11],115 % of control
same,T/C,"dose: 200.0 mg/kg/injection, schedule: Q01DX009 (ip), vehicle: Klucel (hydroxypropylcellulose) (HPC)",121 % of control
CC[C@]12CN3CCc4c([nH]c5ccccc45)[C@@](C(=O)OC)(c4cc5c(cc4OC)N(C)[C@H]4[C@@](O)(C(=O)OC)[C@H](OC(C)=O)[C@]6(CC)C=CCN7CC[C@]54[C@@H]76)CC(C3)[C@H]1O2 (some centres undefined),T/C,"dose: 0.05 mg/kg/injection, schedule: Q01DX009 (ip), vehicle: saline",106 % of control
same,T/C,"dose: 0.1 mg/kg/injection, schedule: Q01DX009 (ip), vehicle: saline",101 % of control
same,T/C,"dose: 0.2 mg/kg/injection, schedule: Q01DX009 (ip), vehicle: saline",97 % of control
same,T/C,"dose: 0.4 mg/kg/injection, schedule: Q01DX009 (ip), vehicle: saline",113 % of control
same,T/C,"dose: 0.75 mg/kg/injection, schedule: Q01DX009 (ip), vehicle: Klucel (hydroxypropylcellulose) (HPC)",107 % of control
same,T/C,[4],90 % of control
same,T/C,"dose: 0.8 mg/kg/injection, schedule: Q01DX009 (ip), vehicle: saline",116 % of control
same,T/C,"dose: 1.5 mg/kg/injection, schedule: Q01DX009 (ip), vehicle: Klucel (hydroxypropylcellulose) (HPC)",115 % of control
same,T/C,"dose: 1.5 mg/kg/injection, schedule: Q04DX003 (ip), vehicle: saline",102 % of control
same,T/C,"dose: 1.6 mg/kg/injection, schedule: Q01DX009 (ip), vehicle: saline",113 % of control
same,T/C,[5],187 % of control
same,T/C,"dose: 3.0 mg/kg/injection, schedule: Q04DX003 (ip), vehicle: saline",111 % of control
same,T/C,"dose: 3.2 mg/kg/injection, schedule: Q01DX009 (ip), vehicle: saline",162 % of control
same,T/C,[12],175 % of control and 202 % of control
same,T/C,"dose: 6.0 mg/kg/injection, schedule: Q01DX009 (ip), vehicle: saline",221 % of control [middle of 4 runs]
same,T/C,"dose: 6.4 mg/kg/injection, schedule: Q01DX009 (ip), vehicle: saline",157 % of control
same,T/C,"dose: 9.0 mg/kg/injection, schedule: Q01DX009 (ip), vehicle: saline",212 % of control and 248 % of control
same,T/C,"dose: 12.0 mg/kg/injection, schedule: Q01DX009 (ip), vehicle: Klucel (hydroxypropylcellulose) (HPC)",168 % of control
same,T/C,"dose: 12.0 mg/kg/injection, schedule: Q01DX009 (ip), vehicle: saline",161 % of control
same,T/C,"dose: 12.0 mg/kg/injection, schedule: Q04DX003 (ip), vehicle: saline",152 % of control
same,T/C,"dose: 12.8 mg/kg/injection, schedule: Q01DX009 (ip), vehicle: saline",169 % of control
CC(O)CNCCNc1ccc(NCCNCC(C)O)c2c1C(=O)c1c(O)ccc(O)c1C2=O (centres undefined),T/C,"dose: 0.5 mg/kg/injection, schedule: Q01DX009 (ip), vehicle: distilled water + Tween-80",150 % of control
same,T/C,"dose: 1.0 mg/kg/injection, schedule: Q01DX009 (ip), vehicle: distilled water + Tween-80",163 % of control
same,T/C,"dose: 2.0 mg/kg/injection, schedule: Q01DX009 (ip), vehicle: distilled water + Tween-80",178 % of control
same,T/C,"dose: 4.0 mg/kg/injection, schedule: Q01DX009 (ip), vehicle: distilled water + Tween-80",222 % of control
same,T/C,"dose: 8.0 mg/kg/injection, schedule: Q01DX009 (ip), vehicle: distilled water + Tween-80",222 % of control
same,T/C,"dose: 16.0 mg/kg/injection, schedule: Q01DX009 (ip), vehicle: distilled water + Tween-80",222 % of control
CSc1nc2ccccc2s1,T/C,[10],106 % of control
same,T/C,[11],115 % of control
